The values below are quoted from earlier work in patent US20040143855A1, “Ion channels as targets for sleep-related drugs” (priority 2002, published 2004).

The target in one data set is T1, TREK-1 (Homo sapiens, UniProt O95069).
T1 sequence (O95069 1-426): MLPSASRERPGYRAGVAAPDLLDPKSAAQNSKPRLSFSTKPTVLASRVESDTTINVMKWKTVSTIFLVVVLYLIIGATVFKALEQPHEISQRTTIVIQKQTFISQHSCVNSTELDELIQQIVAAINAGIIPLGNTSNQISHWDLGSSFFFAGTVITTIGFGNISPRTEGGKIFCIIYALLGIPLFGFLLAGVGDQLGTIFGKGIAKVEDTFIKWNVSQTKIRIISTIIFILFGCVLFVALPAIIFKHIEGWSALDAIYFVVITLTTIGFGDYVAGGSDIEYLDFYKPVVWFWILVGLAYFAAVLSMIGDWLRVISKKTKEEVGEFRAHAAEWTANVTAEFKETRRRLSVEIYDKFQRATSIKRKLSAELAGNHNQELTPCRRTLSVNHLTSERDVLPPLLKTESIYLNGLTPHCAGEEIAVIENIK
The note with it: volatile general anesthetics.

Another data set deals with Drosophila. The note with it: flies given the drug.

Take `FC(F)OC(Cl)C(F)(F)F` (stereo not shown) [isoflurane]: the “effect on TREK-1 channel” value on TREK-1 is on record as “activated”.
Turning to `Cn1c(=O)c2c(ncn2C)n(C)c1=O` [caffeine], the “sleep (amount)” value with Drosophila was “dose-dependent decrease in sleep”.
For the compound `ClC(Cl)Cl` [chloroform], the “effect on TREK-1 channel” value at TREK-1 is listed as “activated”.
Regarding `FC(F)(F)C(Cl)Br` (stereo not shown) [halothane], on TREK-1, the “effect on TREK-1 channel” value was “activated”.
As for `OCCOCCN1CCN(C(c2ccccc2)c2ccc(Cl)cc2)CC1` (stereo not shown) [hydroxyzine], in the data set on Drosophila, the “sleep (amount)” value is on record as “increased sleep” and the sleep latency entry is listed as “reduced its latency”.
Consider `CCOCC` [diethylether], for which the “effect on TREK-1 channel” value on TREK-1 is recorded as “activated”.
